The target of data set [1] is AMPA glutamate receptor. Put plainly: Patch clamp activity (RGLS4326, off-target follow-up). Type of data set: cell-based. As to the method: To identify potential candidates for off-target pharmacology, a panel of 174 targets including G-protein coupled receptors, transporters, ion channels, nuclear receptors, and cytokine receptors was evaluated in vitro for possible interactions with RGLS4326. […] AMPA receptors are ion channels on excitatory synapses in the CNS that mediate fast excitatory neurotransmission and, therefore, are key components of all neuronal networks. Such an interaction with the AMPA receptor could explain the CNS-mediated findings observed at high doses of RGLS4326 in nonclinical toxicology models.

The test system of data set [2] is C57Bl/6J male mice. Description: ICV maximum tolerated dose study, Study 1. The class given is in vivo, mouse. As to conditions: 7-day. As to the method: Compounds (RG-NG-1017, RGLS4326, RG-NG-1001) were evaluated in a pilot maximum tolerated dose (MTD) study (discussed below). RG-NG-1017, RGLS4326 and RG-NG-1001 were initially evaluated at 4 dose-levels each. RG-NG-1017 was included for evaluation as a non-AMPA-R binding compound, as compared to RGLS4326 and RG-NG-1001, which bind AMPA-R. C57Bl/6J male mice (Jackson Laboratories), age 6-7 weeks, were used in this study. Mice were assigned randomly to treatment groups, and the study was blinded. Animals were allowed to acclimate for no less than 5 days and housed on a 12 hr light/dark cycle (lights on 7:00 AM). No more than 4 mice were house in each cage in a ventilated cage rack system. The diet consisted of standard rodent chow and water ad libitum.
The following parameters were used for this study: • 1. Route(s) of administration: intracerebroventricular (ICV) dosing of RG-NG-1017, RG-NG-1001, RGLS4326 • 2. Dose Volume(s): 4 μL • 3. Formulation(s): vehicle, Ca^2+ and Mg^2+ free dPBS • 4. Dose Frequency: Once • 5. Study duration: 8 Days • 6. Number of Groups: 3 • 7. Number of animals per group: (2-4 each group) • 8. Total number of animals: […]
For the ICV administration, mice were anesthetized and positioned for injections. The skin over the skull was incised, and a small hole was made in the skull above the target using a microdrill. The stereotactic coordinates were anteroposterior (AP), −0.4 mm; mediolateral (ML), +/−1.0-1.5 mm; dorsoventral (DV), −3.0 mm from the bregma for injection into both the right and left lateral cerebral ventricles (Hironaka et al, 2015). Animals were injected unilaterally with 4 μl into the right lateral cerebral ventricle. Compounds were injected over 1-2 min, and the needle was left in place for 0.5-1 min prior to withdrawal. The incision was closed with sutures, wound clips, or VetBond.
Following ICV treatment (Day 0), animals were monitored for 7 days in which daily health checks, body weight, and mortality was recorded. On Day 7, brain and kidney were collected and fixed (10% formalin) and stored pending histology.

For data set [3], the system named is Swiss:Rjorl male mice. Put plainly: ICV maximum tolerated dose study for RGLS4326, Study 2. Type of data set: in vivo, mouse. As to the method: A second MTD study for RGL4326 by ICV was conducted to assess dose selection for evaluating the compound in disease models (Table 11). In this study, a different mouse strain was evaluated (Swiss:Rjorl male mice, age 5 weeks, sourced from Janvier). Mice were placed under isoflurane anaesthesia (5% for induction and 2% for maintenance, under 100% O2) and given 5 mg/kg s.c. carprofen (Rimadyl®). They were then placed in a stereotaxic frame. A midline sagittal incision was made in the scalp and a hole was drilled in the skull over the left lateral ventricle. A stainless-steel cannula (external diameter 0.51 mm) was placed stereotaxically into the left lateral ventricle at the following coordinates: +0.5 posterior to Bregma, L±0.7 mm, V=−2.7 mm. After a 2-minute delay to allow the brain tissue to slide over the cannula, 4 μL of a solution containing 0.625 mg/mL of RG4326 was slowly infused over 2 minutes. After infusion, the cannula was left in place for a further 5 minutes to prevent backflow of the solution along the cannula track. Mice were given 5 mg/kg s.c. carprofen (Rimadyl®) at 24 and 48 hours, after surgery. Mice were monitored during 3-7 days after surgery (starting 24 h after ICV administration) and their body weight was taken daily to check their health status. For mice monitored over 7 days, body weight was taken on Day 1 and on Day 7 after surgery to check their health status.
In Study 1, 6 mice were injected with 4 μL of a solution at 0.625 mg/mL (2.5 μg total per ICV; Table 10). At the end of anesthesia, the mice remained lying on one side. They were quiet with some periods of scratching during the first hours after surgery. […] In Study 2, four mice were injected with 4 different doses of RGLS4326 (0.75, 1.0, 1.25 and 1.875 mg/mL, volume of 4 μL). One mouse that received the highest dose (1.875 mg/mL, i.e., 7.5 μg/mouse) was found dead around 24 hours after ICV injection. All other mice were in good health, until the end of the pilot study (7 days after administration).

What is called IC50 is the concentration at which inhibition is half-maximal. For “ASGSCMAFCFUFUMUSGS [RGLS4326, reference compound]”, in data set [1], the “functional IC50 based on patch clamp activity” value is 0.9 to 1.8 mg/L. The IC50 in data set [1] (read-out: functional IC50 based on patch clamp activity) was in the range of 0.3 to 0.6 µM. Moreover, the “Mortality/total number of mice” value is listed as 0/3 in data set [2] (single ICV 2.5 μg); 2/4 in data set [2] (single ICV 5 μg); 3/4 in data set [2] (single ICV 10 μg); 3/3 in data set [2] (single ICV 25 μg); 3/3 in data set [2] (single ICV 50 μg); 2/2 in data set [2] (single ICV 100 μg). Also, the “Mortality/total number of mice” value in data set [2] (single ICV 300 μg) and in data set [2] (single ICV 600 μg) was 2/2 each time. The “toxic effects at 24, 48 or 72 hours” value in data set [3] (ICV 4 μL of 0.625 mg/mL (2.5 μg total), 6 mice) is “No toxic effects were observed”. Besides, the “Dead/Total Mice, Study 2” value in data set [3] (single ICV 2.5 μg) is 0/6; in data set [3] (single ICV 3 μg, 7-day), 0/4; in data set [3] (single ICV 4 μg, 7-day), 0/4; in data set [3] (single ICV 5 μg, 7-day), 0/4; in data set [3] (single ICV 7.5 μg, 7-day), 1/4. In data set [3] (single ICV, Swiss:Rjorl mouse strain, predicted from Study 2), the MTD was around 4 µg.

The values above are taken from patent US12559750B2, “Methods and compositions for treatment of polycystic kidney disease” (Regulus Therapeutics Inc., priority 2021, dated 2026).
